According to paper PMC1241435 (Environmental Health Perspectives, 2003):

How the values were obtained:
FMO I = molecular target: T1, FMO I (Homo sapiens, UniProt Q01740); assay: sulfoxide formation by microsomes of cells expressing the recombinant enzyme; assay type: cell-based
T1 sequence (Q01740 2-532): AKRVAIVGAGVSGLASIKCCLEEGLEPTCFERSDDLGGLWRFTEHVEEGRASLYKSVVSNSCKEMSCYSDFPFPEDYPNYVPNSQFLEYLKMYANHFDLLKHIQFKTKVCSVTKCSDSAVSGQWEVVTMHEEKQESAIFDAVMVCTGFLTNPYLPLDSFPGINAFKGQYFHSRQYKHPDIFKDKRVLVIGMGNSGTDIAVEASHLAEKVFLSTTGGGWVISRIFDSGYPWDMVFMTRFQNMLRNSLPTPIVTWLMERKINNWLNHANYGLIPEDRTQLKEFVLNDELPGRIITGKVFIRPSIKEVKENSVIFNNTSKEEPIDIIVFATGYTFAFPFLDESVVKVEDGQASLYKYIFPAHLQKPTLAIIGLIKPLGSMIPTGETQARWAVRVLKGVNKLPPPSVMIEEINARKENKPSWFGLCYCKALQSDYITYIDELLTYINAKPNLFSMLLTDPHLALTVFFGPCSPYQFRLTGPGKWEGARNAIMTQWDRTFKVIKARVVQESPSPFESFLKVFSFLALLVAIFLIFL

CYP 1A1 = molecular target: T2, CYP 1A1 (Homo sapiens, UniProt P04798); assay: as above; assay type: cell-based
T2 sequence (P04798 1-512): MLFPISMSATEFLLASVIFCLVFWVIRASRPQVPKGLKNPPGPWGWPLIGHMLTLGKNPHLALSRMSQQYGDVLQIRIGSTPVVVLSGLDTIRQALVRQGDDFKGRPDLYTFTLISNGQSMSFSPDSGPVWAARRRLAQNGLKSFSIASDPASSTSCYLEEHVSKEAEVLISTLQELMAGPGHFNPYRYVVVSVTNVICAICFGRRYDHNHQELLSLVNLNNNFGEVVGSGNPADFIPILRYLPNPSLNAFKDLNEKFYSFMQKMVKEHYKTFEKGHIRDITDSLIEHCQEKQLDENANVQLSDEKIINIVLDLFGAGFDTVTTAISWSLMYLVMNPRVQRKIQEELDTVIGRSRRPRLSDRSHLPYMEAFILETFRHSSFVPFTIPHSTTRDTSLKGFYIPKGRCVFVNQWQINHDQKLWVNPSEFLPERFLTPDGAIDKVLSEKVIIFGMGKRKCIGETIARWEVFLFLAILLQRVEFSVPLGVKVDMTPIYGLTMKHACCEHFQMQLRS

COP(=S)(OC)Oc1ccc(SC)c(C)c1 [fenthion, O,O-dimethyl-O-(4-methylmercapto)-3-methylphenylthio-phosphate]
sulfoxide formation by microsomes of cells expressing the recombinant enzyme (FMO I): 62.4 nmol/min/mg protein | sulfoxide formation by microsomes of cells expressing the recombinant enzyme (CYP 1A1): 3.6 nmol/min/mg protein
